Results: PubChem BioAssay (NCI)
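Each compound was tested at five concentrations against cells in 96-well plates for 48 hours. GI50 marks 50% less growth. At the TGI there is no net growth.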

Experiments:
Test in all cases: NCI-60 cell line screen, 48 h
[1] = tested on: MOLT-4 leukemia
[2] = tested on: K-562 leukemia
[3] = tested on: HT29 colon
[4] = tested on: ACHN renal
[5] = tested on: MCF7 breast
[6] = tested on: TK-10 renal
[7] = tested on: M14 melanoma
[8] = tested on: CAKI-1 renal
[9] = tested on: CCRF-CEM leukemia
[10] = tested on: MALME-3M melanoma

Compound	GI50 [1] [µM]	TGI [1] [µM]	GI50 [2] [µM]	TGI [2] [µM]	GI50 [3] [µM]	TGI [3] [µM]	GI50 [4] [µM]	TGI [4] [µM]	GI50 [5] [µM]	TGI [5] [µM]	GI50 [6] [µM]	TGI [6] [µM]	GI50 [7] [µM]	TGI [7] [µM]	GI50 [8] [µM]	TGI [8] [µM]	GI50 [9] [µM]	TGI [9] [µM]	TGI [10] [µM]
COC(=O)c1sc(=S)c2sc(C(=O)OC)c(C(=O)OC)c2c1C(=O)OC	36.9	> 100	36.2	> 100	72.6	> 100	40.3	> 100	40	> 100	18.1	89.8	32.5	> 100	58.1	> 100	30.8	80.1	
COc1ccc(/C(C#N)=C2/O/C(=N/N)C(c3ccc(OC)c(OC)c3)C2=O)cc1OC (stereo not given)		> 100		> 100		> 100		> 100				> 100		> 100		> 100		> 100	> 100
O=C(Nc1ccc(-n2cc(-c3ccncc3)c(-c3ccc(Cl)c(O)c3)n2)cc1)c1ccc(Cl)c(Cl)c1	4.02	> 100	1.32	> 100	2.6	> 100	4.2	> 100	4.63	> 100	> 100	> 100	2.35	7.56	3.67	21.3	4.52	> 100	
Cc1ncc([N+](=O)[O-])n1CCOc1ccc(C(=O)/C=C/c2ccc(C(F)(F)F)cc2)cc1	2.17	6.29	1.53	3.83	1.99	4.23	2.77	9.14	1.7	4.01			3.85	14.8	2	5.25	2.02	6	
O=C(N[C@H]1CC2(C=C(I)C(=O)C(I)=C2)OC1=O)OCc1ccccc1				33.5		35.8		32.8				32.3		31.2		36.3		8.64	31.9
O=C(Cc1csc2nc(-c3ccc(Br)cc3)cn12)N/N=C/c1ccccc1O	2.35	10.8	0.0372	2.95	5.97	19.2	1.57	6.3	13.2	> 100	2.05	8.72	2.58	7.77	0.397	2.4	1.81	8.41	
Cc1cccc(NC(=O)CSc2nnc(-c3ccc(N=Cc4ccc(Cl)cc4)cc3)o2)c1		> 100		> 100		> 100		> 100				> 100		> 100				> 100	> 100
CCOc1ccccc1NC(=O)C1=C(C)NC(C)=C(C(=O)Nc2ccccc2OCC)C1c1ccc2c(c1)OCO2		75.3		70.3		> 100		> 100				> 100		78.2		> 100		85.1	83.5
CC1(C)O[C@@H](CCl)C[C@@H](C#N)O1		> 100		> 100		> 100		> 100				> 100		> 100		> 100		> 100	> 100
Cc1cc2nc3c(C(OC4OC(CO)C(O)C(O)C4O)C(O)CO)nn(-c4ccc(F)cc4)c3nc2cc1C (stereo not given)		> 100		> 100		> 100		> 100				> 100		> 100				> 100	> 100
COC(=O)C1C(=O)NC2(C)CC1c1ccccc1O2 (stereo not given)		> 100		> 100		> 100		> 100				> 100		> 10		> 100		> 100	> 100
O=C(Cn1ccnc1[N+](=O)[O-])NCc1ccc(F)cc1		> 100		> 100		> 100		> 100				> 100		> 100		> 100		> 100	> 100
O=C1Cc2c([nH]c3ccccc23)-c2cc(Br)ccc2N1		> 100		> 100		> 100		> 100				> 100		> 100		> 100		> 100	> 100
CCOc1ccc(N=Nc2c(-c3ccccc3)nn(C(=O)CC(=O)Nc3ccccc3Cl)c2-c2ccccc2)cc1		> 100		> 100		> 100		> 100				> 100		> 100		> 100		> 100	> 100
COc1cc2ccc(CC(=O)O)cc2cc1OC		> 100		> 100		> 100		> 100				> 100		> 100		> 100		> 100	> 100
COc1cc([C@H]2c3cc4c(cc3[C@H](NCc3ccc(F)cc3)C3COC(=O)[C@H]32)OCO4)cc(OC)c1O (stereo not given in full)		6.42		41		27		4.34				41.4		13.6				> 100	19.5
CC[C@]1(O)C[C@@H]2CN(CCc3c([nH]c4ccccc34)[C@@](C(=O)OC)(c3cc4c(cc3OC)N(C)[C@H]3[C@@](O)(C(=O)OC)[C@H](OC(=O)CCCBr)[C@]5(CC)C=CCN6CC[C@]43[C@@H]65)C2)C1	0.026	> 100	< 0.01	> 100	< 0.01	> 100	0.108	> 100	< 0.01	> 100	2	> 100	0.0543	25.9	< 0.0206	2.12	0.0232	> 100	
CCOC(=O)c1cnc2c(ccc3ncccc32)c1OCC		> 100		> 100		> 100		> 100				> 100		> 100				> 100	> 100
